SMILES strings stand for the structures.

Experimental findings from US20250145628A1, “PYRAZOLOPYRIMIDINES, COMPOSITIONS COMPRISING THEM AND USES THEREOF” (Novo Nordisk A/S, priority 2022, published 2025) are described below.

Test [1] addresses T1, human CB1 receptor (Homo sapiens, UniProt P21554).
T1 construct: expressed in transfected cells; host or cells: HEK293
Kind of test: bioSensAll GAPL-Gi2 BRET biosensor assay (antagonism of CP-55,940). The format is cell-based. As to conditions: HEK293 cells transfected with hCB1 and GAPL-Gi2 biosensor, EC75 of CP-55,940 (0.1 nM), overnight incubation, read-out: CB1 wt Gi2 IC50. In outline:
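HEK293 cells transiently co-transfected with hCB1 and GAPL-Gi2 BRET biosensor; ~48 h later, in HBSS, 12 compound doses ([…]) added 3–5 min before CP-55,940 at EC75 (0.1 nM). BRET ratio 515/400 nm with coelenterazine, standardized to uBRET; four-parameter logistic fit.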
In general terms: BRET reads energy transfer from a luciferase to a nearby fluorophore.

For test [2], the target named is T1, human CB1 receptor. Kind of test: bioSensAll β-arrestin plasma membrane translocation BRET biosensor (+GRK2) assay (antagonism of CP-55,940). The format is cell-based. As to conditions: HEK293 cells transfected with hCB1 and β-arrestin PM translocation biosensor (+GRK2), EC75 of CP-55,940 (100 nM), overnight incubation, read-out: CB1 wt βarr2 IC50. In outline:
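HEK293 cells co-transfected with hCB1 and β-arrestin plasma-membrane translocation BRET biosensor plus GRK2, tested ~48 h later in HBSS. Compounds (12 doses, 0–600 nM) added 3–5 min before CP-55,940 at EC75 of 100 nM. uBRET ratio (515/400 nm) fitted by four-parameter logistic regression.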

T1 sequence (P21554 whole entry): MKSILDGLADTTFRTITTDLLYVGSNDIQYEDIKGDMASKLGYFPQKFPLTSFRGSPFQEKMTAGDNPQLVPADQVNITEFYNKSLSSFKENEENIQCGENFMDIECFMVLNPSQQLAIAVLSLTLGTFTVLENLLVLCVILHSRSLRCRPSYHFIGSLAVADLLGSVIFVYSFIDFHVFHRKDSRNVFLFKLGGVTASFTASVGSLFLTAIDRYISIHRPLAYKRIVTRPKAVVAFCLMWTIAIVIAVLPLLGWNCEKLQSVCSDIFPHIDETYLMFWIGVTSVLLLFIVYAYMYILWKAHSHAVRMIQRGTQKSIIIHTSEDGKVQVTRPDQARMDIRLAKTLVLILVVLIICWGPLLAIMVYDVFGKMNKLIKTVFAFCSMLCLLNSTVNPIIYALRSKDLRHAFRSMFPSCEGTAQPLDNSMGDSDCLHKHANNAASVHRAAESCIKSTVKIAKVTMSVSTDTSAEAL

As to `CCNC1(C(N)=O)CCN(c2cc(N3CCC[C@H]3CO)nc3c(-c4ccc(Cl)cc4)c(-c4ccccc4Cl)nn23)CC1` [Compound 1, 1-[2-(2-chlorophenyl)-3-(4-chlorophenyl)-5-[(2S)-2-(hydroxymethyl)pyrrolidin-1-yl]pyrazolo[1,5-a]pyrimidin-7-yl]-4-(ethylamino)piperidine-4-carboxamide], the IC50 came out at 1.2 nM on human CB1 receptor [1] and 4.31 nM at human CB1 receptor [2].
The matching figures for `O=S(=O)(N1CCN(c2cc(N3CCC[C@H]3CO)nc3c(-c4ccc(Cl)cc4)c(-c4ccccc4Cl)nn23)CC1)C(F)(F)F` [Compound 7, [(2S)-1-[2-(2-chlorophenyl)-3-(4-chlorophenyl)-7-[4-(trifluoromethylsulfonyl)piperazin-1-yl]pyrazolo[1,5-a]pyrimidin-5-yl]pyrrolidin-2-yl]methanol]: 1.55 nM and 3.31 nM.
The matching figures for `CN(CCC(N)=O)c1cc(N2CCC[C@@H](C(N)=O)C2)n2nc(-c3ccccc3Cl)c(-c3ccc(Cl)cc3)c2n1` [Compound 23, (3R)-1-[5-[(3-amino-3-oxo-propyl)-methyl-amino]-2-(2-chlorophenyl)-3-(4-chlorophenyl)pyrazolo[1,5-a]pyrimidin-7-yl]piperidine-3-carboxamide]: 25.5 nM and 101 nM.
As for `CN(CC(C)(C)O)c1cc(-c2ccc(C(F)(F)F)nc2)n2nc(-c3ccc(C(N)=O)nc3)c(-c3ccc(Cl)cc3)c2n1` [Compound 64, 5-[3-(4-chlorophenyl)-5-[(2-hydroxy-2-methyl-propyl)-methyl-amino]-7-[6-(trifluoromethyl)-3-pyridyl]pyrazolo[1,5-a]pyrimidin-2-yl]pyridine-2-carboxamide], the figures for the IC50 on human CB1 receptor [1] and on human CB1 receptor [2] were 1.25 nM and 2.95 nM, respectively.
For `CC(C)(O)COc1cc(N2CCC(C)(O)CC2)n2nc(-c3ccccc3Cl)c(-c3ccc(Cl)cc3)c2n1` [Compound 14, 1-[2-(2-chlorophenyl)-3-(4-chlorophenyl)-5-(2-hydroxy-2-methyl-propoxy)pyrazolo[1,5-a]pyrimidin-7-yl]-4-methyl-piperidin-4-ol], the figures for the IC50 on human CB1 receptor [1] and on human CB1 receptor [2] were 2.52 nM and 9.25 nM, respectively.
For `CN(C)C(=O)CN(C)c1cc(N2CCC[C@@H](C(N)=O)C2)n2nc(-c3ccccc3Cl)c(-c3ccc(Cl)cc3)c2n1` [Compound 29, (3R)-1-[2-(2-chlorophenyl)-3-(4-chlorophenyl)-5-[[2-(dimethylamino)-2-oxo-ethyl]-methyl-amino]pyrazolo[1,5-a]pyrimidin-7-yl]piperidine-3-carboxamide], in that order: 34.8 nM and 114 nM.

By IC50 is commonly meant the midpoint of a concentration-inhibition curve.
